# In US9539229B2, “Intestinal tract-protecting agent containing hydroxylated fatty acid” (KYOTO UNIVERSITY, priority 2013, dated 2017):
# Key:
# [1] = system: tight junction-related factors in large intestinal tissues; test: Gene expression of tight junction-related factors in large intestinal tissues of DSS-induced enteritis model mouse (real-time PCR); format: in vivo, BALB/c mice; settings: oral 100 nmol/day, FIG. 10
# Method: (§1) BALB/c mice (♀, 6-week-old) were purchased from Charles River Japan (Kanagawa, Japan), and all experiment plans were carried out in accordance with Hiroshima University, Animal Experiment Rule (No. C10-17). Acute colitis was induced by allowing free intake of 3.5% (w/v) DSS (molecular weight 36000-50000; MP Biomedicals, Aurora, Ohio, USA) for 5 days. To evaluate the effect of HYA and HYB on large intestine, 100 μL of a suspension of HYA or HYB (each 100 nmol) was orally administered to the mice. This administration was performed every day for total 10 days, for 5 days before DSS administration and 5 days after the start of the administration. The symptoms of colitis were evaluated every day based on a decrease in body weight, condition of feces and bleeding from the anus. After administration of DSS for 5 days, the mouse was sacrificed, and the length of the large intestine was measured. Thereafter, RNA was extracted from the large intestine tissue by using RNeasy Mini Kit (Qiagen, Maryland, Md., USA). Paraffin section (7 μm) of the large intestine tissue was produced, stained with hematoxylin-eosin, and histochemically evaluated. The extracted RNA was reverse-transcribed using a high-capacity cDNA reverse transcription kit (Life Technologies) to give cDNA, and real-time PCR analysis was performed using a KAPA SYBR FAST ABI PRISM qPCR kit (Kapa Biosystems). As the primer, oligoDNA pairs of nucleotide sequences were used: SEQ ID NOs: 5 and 6 for Claudin-1, SEQ ID NOs: 13 and 14 for Claudin-3, SEQ ID NOs: 15 and 16 for Claudin-4, SEQ ID NOs: 7 and 8 for ZO-1, SEQ ID NOs: 17 and 18 for ZO-2, SEQ ID NOs: 9 and 10 for Occludin, and SEQ ID NOs: 11 and 12 for MLCK.
# [2] = system: tight junction-related factors (MLCK, occludin) in Caco-2 monolayer cells; test: Gene expression of tight junction-related factors in Caco-2 monolayer cells (real-time PCR); format: cell-based, human; settings: IFN-γ and TNF-α, 6 hr, FIG. 4
# Method: (§2) To the inner side culture medium of each well of the Caco-2 monolayer cells prepared by the aforementioned method was added a solution of HYA, HYB, KetoA, KetoB or KetoC (each 50 μM concentration, 500 μL), and the mixture was cultured for 24 hr. Then, IFN-γ was added to the outer side culture medium to the final concentration of 50 ng/mL and, after culture for 24 hr, the outer side medium was once removed. TNF-α was added to 50 ng/mL, the mixture was further cultured for 6 hr, and the below-mentioned intestinal tract barrier protection effect was evaluated. Also, a well free of test fatty acid and added with IFN-γ and TNF-α, and a well free of test fatty acid solution, IFN-γ and TNF-α (hereinafter to be also referred to as control) were prepared.
# (§3) In the same manner as in the aforementioned Example, HYA was added and, 6 hr later, the Caco-2 monolayer cells were washed 3 times with PBS, and RNA was extracted with TRIzol (registered trade mark) (manufactured by Life Technologies) from the cells. RNA was reverse-transcribed using a high-capacity cDNA reverse transcription kit (Life Technologies) to give cDNA, and real-time PCR analysis was performed using KAPA SYBR FAST ABI PRISM qPCR kit (Kapa Biosystems). […]
# [3] = system: DSS-induced enteritis model mouse; test: Dextran sodium sulfate (DSS)-induced enteritis model mouse: body weight, feces, large intestine length, histology; format: in vivo, BALB/c mice; settings: 100 nmol orally every day for 10 days, 3.5% DSS for 5 days
# Method: as §1
# [4] = system: Caco-2 monolayer cells; test: Intestinal tract barrier protection: transepithelial electrical resistance (TER) of Caco-2 monolayer cells stimulated with IFN-γ and TNF-α; format: cell-based, human; settings: 50 μM test fatty acid 24 hr, then IFN-γ 50 ng/mL 24 hr, TNF-α 50 ng/mL, 0-6 hr; FIG. 2
# Method: (§4) Caco-2 cells were placed in a 75 cm^2 tissue culture flask, and cultured up to about 80% confluence at 37° C. The cells were inoculated in a 12-well transwell (Transwell (registered trade mark)) cell culture chamber (permeable membrane; diameter 12 mm, pore size 0.4 μm) at a cell concentration of 2×10^5 cells/cm^2, and cultured at 37° C. for 14 days under 5% CO2 atmosphere to give Caco-2 monolayer cells. Furthermore, to verify whether or not tight junction is sufficiently formed, Caco-2 monolayer cells having transepithelial electrical resistance (TER) of about 900-1,000 Ωcm^2 or more were used for the assay. […]
# (§5) To the inner side culture medium of each well of the Caco-2 monolayer cells prepared by the aforementioned method was added a solution of HYA, HYB, KetoA, KetoB or KetoC (each 50 μM concentration, 500 μL), and the mixture was cultured for 24 hr. […] TNF-α was added to 50 ng/mL, the mixture was further cultured for 6 hr, and the below-mentioned intestinal tract barrier protection effect was evaluated. […]
# (§6) The intestinal tract barrier protection effect by test fatty acid solution was compared using transepithelial electrical resistance (TER) value (Ω·cm^2) and IL-8 production (pg/mL) as indices. With a resistance value measurement system (Millicell-ERS, Millipore) using an Ag/AgCl electrode, each TER value at 0, 1, 2, 3, 4, 5 and 6 hr after addition of TNF-α was measured. […]
# [5] = system: IL-8 mRNA in Caco-2 cells; test: IL-8 mRNA expression in Caco-2 monolayer cells (real-time PCR); format: cell-based, human; settings: IFN-γ and TNF-α, FIG. 3B
# Method: as §2, §3
# [6] = system: IL-8 production in Caco-2 cells; test: IL-8 production in Caco-2 monolayer cells stimulated with IFN-γ and TNF-α (ELISA); format: cell-based, human; settings: 50 μM, IFN-γ and TNF-α stimulation, outer side culture medium 6 hr after TNF-α addition, FIG. 3A
# Method: as §4, §5, §6
SMILES,mRNA expression of MLCK in large intestine tissue ([1]; compared to the DSS mouse),mRNA expression of occludin in large intestine tissue ([1]; compared to the DSS mouse),mRNA expression of MLCK [2],mRNA expression of occludin [2],"weight loss ([3]; FIG. 5, 6)",stool score ([3]; FIG. 7),length of large intestine ([3]; FIG. 8),histochemical evaluation of the large intestine section (H&E staining) ([3]; FIG. 9),TER relative value (Relative TER) [4],mRNA expression of IL-8 [5],IL-8 production [6],"mRNA expression of all TJ-associated factors (claudin-1, -3, -4, occludin, MLCK, ZO-1, ZO-2) in large intestine tissue ([1]; DSS mouse)"
"CCCCC/C=C\CC(O)CCCCCCCCC(=O)O (stereo not drawn) [HYA, 10-hydroxy-cis-12-octadecenoic acid]",significant recovery of the mRNA expression of occludin and MLCK,significant recovery of the mRNA expression of occludin and MLCK,suppression of an increase in the mRNA expression of MLCK,suppression of an increase in the mRNA expression of MLCK and a decrease in the mRNA expression of occludin,effective for the suppression of weight loss,recovery of stool score,protection of large intestine,showed recovery of tissue damage,showed suppression of a decrease in the TER relative value,suppressed such increase in the expression,suppression of IL-8 production was observed,–
"CCCCCCCCC(O)CCCCCCCCC(=O)O (centres unmarked) [HYB, 10-hydroxyoctadecanoic acid]",–,–,–,–,–,–,–,–,–,suppressed such increase in the expression,suppression of IL-8 production was observed,did not show recovery from abnormal expression of all TJ-associated factors
